Among the data in patent publication US20260103471A1, “CYCLIC UREA THIAZOLYL COMPOUNDS FOR TREATMENT OF HSV” (Assembly Biosciences, Inc., priority 2022, published 2026) are EC50 values, retold here.

For the first assay, the system named is HSV-2 G strain. The assay is described as follows: HSV-2 Antiviral Assay (Vero cells, cell viability). The format is cell-based. The following applies: Human alphaherpesvirus 2, Vero, 120 h, Vero cells, 160 TCID50 HSV-2 G strain, 5 days, cell viability. Here is the method:
Vero cells were cultured in Dulbecco's Modified Eagle Medium (DMVEM) supplemented with […] and 100 units/mL penicillin and streptomycin. The cells were passaged 2-3 times per week to maintain sub-confluent densities.
Vero cells were seeded into 96-well plates at a density of 1.0×10^4 cells per well and allowed to attach overnight. Following attachment, the media was replaced with 50 μL of infection medium (DMEM supplemented with 2% fetal bovine serum and 100 units/mL penicillin and streptomycin). A Tecan D300e digital dispenser was then used to add compounds to the culture using an 8-point 3-fold serial dilution format. The DMSO concentration was normalized to 0.5% for all treatments. Following compound addition, 50 μL of infection medium containing 160 TCID50 HSV-2 G strain was added to the cells and incubated at 37° C. for 5 days. After the incubation, 10 μL/well of WST-8 chromogenic reagent was added and the plates incubated at 37° C. for 3 hours. Following the incubation, cell viability was quantified by measuring the absorbance at 460 nm and 620 nm using a Tecan Infinite M1000 Pro plate reader.
In general, EC50 refers to the concentration giving half of the maximal effect. Lower therefore signals higher potency in that assay. For `Cc1nc(N2C(=O)N(c3ccc(-c4cc(F)ccc4F)cc3)CC[C@H]2C)sc1S(N)(=O)=O` (single isomer, unassigned) [Compound 108], the EC50 is under 100 nM.
Compound `Cc1nc(N2C(=O)N(c3ccc(-c4cc(F)ccc4F)cc3)CC[C@@H]2C)sc1S(N)(=O)=O` (single isomer, unassigned) [Compound 109] had an EC50 of under 100 nM.
`Cc1nc(N2CCCN(c3ccc(-c4ccccc4F)cc3)C2=O)sc1[S@](C)(=N)=O` (single isomer, unassigned) [Compound 143] gave a concentration giving a half-maximal response (EC50) of under 100 nM.
On the same count and under the same terms, with `Cc1nc(N2CCCN(c3ccc(-c4ccccc4F)cc3)C2=O)sc1[S@@](C)(=N)=O` (single isomer, unassigned) [Compound 144] the figure was 100 to 1000 nM.
In turn, `CN=[S@](C)(=O)c1sc(N2CCCN(c3ccc(-c4ccccc4F)cc3)C2=O)nc1C` (single isomer, unassigned) [Compound 146] returned an EC50 of 100 to 1000 nM.
Compound `CN=[S@@](C)(=O)c1sc(N2CCCN(c3ccc(-c4ccccc4F)cc3)C2=O)nc1C` (single isomer, unassigned) [Compound 147] gave a concentration giving a half-maximal response (EC50) of under 100 nM.
`CN=[S@@](C)(=O)c1sc(N2CCCN(c3ccc(-c4cc(F)ccc4F)cc3)C2=O)nc1C` (single isomer, unassigned) [Compound 152] yielded an EC50 of 1000 to 5000 nM.
Take `CN=[S@](C)(=O)c1sc(N2CCCN(c3ccc(-c4cc(F)ccc4F)cc3)C2=O)nc1C` (single isomer, unassigned) [Compound 153]: the EC50 is 100 to 1000 nM.
In the case of `Cc1nc(N2C[C@H](C)CN(c3ccc(-c4cc(F)ccc4F)cc3)C2=O)sc1S(N)(=O)=O` (single isomer, unassigned) [Compound 319], the EC50 was under 100 nM.
`Cc1nc(N2C[C@@H](C)CN(c3ccc(-c4cc(F)ccc4F)cc3)C2=O)sc1S(N)(=O)=O` (single isomer, unassigned) [Compound 320] yielded an EC50 of under 100 nM.
On to `Cc1nc(N2C[C@H](C)CN(c3ccc(-c4ccccc4)cc3)C2=O)sc1S(N)(=O)=O` (single isomer, unassigned) [Compound 327], for which the 50% effective concentration (EC50) was under 100 nM.
The compound `Cc1nc(N2C[C@@H](C)CN(c3ccc(-c4ccccc4)cc3)C2=O)sc1S(N)(=O)=O` (single isomer, unassigned) [Compound 328] registered a half-maximal effective concentration (EC50) of under 100 nM.
Compound `COc1ccc(F)cc1-c1ccc(N2C[C@@H](C)CN(c3nc(C)c(S(N)(=O)=O)s3)C2=O)cc1` (single isomer, unassigned) [Compound 330] showed an EC50 of under 100 nM.
The same measure, in the same setting: with `COc1ccc(F)cc1-c1ccc(N2C[C@H](C)CN(c3nc(C)c(S(N)(=O)=O)s3)C2=O)cc1` (single isomer, unassigned) [Compound 331] the figure was under 100 nM; with `Cc1nc(N2CC[C@@H](C)N(c3ccc(-c4cc(F)ccc4F)cc3)C2=O)sc1S(N)(=O)=O` (single isomer, unassigned) [Compound 333], under 100 nM; with `Cc1nc(N2CC[C@H](C)N(c3ccc(-c4cc(F)ccc4F)cc3)C2=O)sc1S(N)(=O)=O` (single isomer, unassigned) [Compound 334], under 100 nM.
`Cc1nc(N2C[C@@H](C(C)(C)O)CN(c3ccc(-c4cc(F)ccc4F)cc3)C2=O)sc1S(N)(=O)=O` (single isomer, unassigned) [Compound 344] returned an EC50 of under 100 nM.
On the same count and under the same terms, with `COc1c(F)cc(F)cc1-c1ccc(N2C[C@@H](C(C)(C)O)CN(c3nc(C)c(S(N)(=O)=O)s3)C2=O)cc1` (single isomer, unassigned) [Compound 346] the figure was 100 to 1000 nM; with `COc1c(F)cc(F)cc1-c1ccc(N2C[C@H](C(C)(C)O)CN(c3nc(C)c(S(N)(=O)=O)s3)C2=O)cc1` (single isomer, unassigned) [Compound 347], 100 to 1000 nM; with `Cc1nc(N2C[C@H](C(F)F)CN(c3ccc(-c4cc(F)ccc4F)cc3)C2=O)sc1S(N)(=O)=O` (single isomer, unassigned) [Compound 350], under 100 nM.
Compound `Cc1nc(N2C[C@@H](C(C)(C)F)CN(c3ccc(-c4cc(F)ccc4F)cc3)C2=O)sc1S(N)(=O)=O` (single isomer, unassigned) [Compound 351] registered a concentration giving a half-maximal response (EC50) of under 100 nM.
Take `Cc1nc(N2C[C@H](C(C)(C)F)CN(c3ccc(-c4cc(F)ccc4F)cc3)C2=O)sc1S(N)(=O)=O` (single isomer, unassigned) [Compound 352]: the 50% effective concentration (EC50) was under 100 nM.
Still for that read-out and setting: then `Cc1nc(N2C[C@H](O)CN(c3ccc(-c4cc(F)ccc4F)cc3)C2=O)sc1S(N)(=O)=O` (single isomer, unassigned) [Compound 354], with under 100 nM; and `Cc1nc(N2C[C@@H](O)CN(c3ccc(-c4cc(F)ccc4F)cc3)C2=O)sc1S(N)(=O)=O` (single isomer, unassigned) [Compound 355], with under 100 nM; and `CO[C@@H]1CN(c2ccc(-c3cc(F)ccc3F)cc2)C(=O)N(c2nc(C)c(S(N)(=O)=O)s2)C1` (single isomer, unassigned) [Compound 358], with 1000 to 5000 nM.
For the compound `CO[C@H]1CN(c2ccc(-c3cc(F)ccc3F)cc2)C(=O)N(c2nc(C)c(S(N)(=O)=O)s2)C1` (single isomer, unassigned) [Compound 359], the EC50 was in the range of 1000 to 5000 nM.
In the case of `Cc1nc(N2C[C@@H](C#N)CN(c3ccc(-c4cc(F)ccc4F)cc3)C2=O)sc1S(N)(=O)=O` (single isomer, unassigned) [Compound 362], the 50% effective concentration (EC50) was under 100 nM.
Same read-out and setting: with `Cc1nc(N2C[C@H](F)CN(c3ccc(-c4cc(F)ccc4F)cc3)C2=O)sc1S(N)(=O)=O` (single isomer, unassigned) [Compound 364] the figure was under 100 nM; with `Cc1nc(N2C[C@@H](F)CN(c3ccc(-c4cc(F)ccc4F)cc3)C2=O)sc1S(N)(=O)=O` (single isomer, unassigned) [Compound 365], under 100 nM.
In turn, `Cc1nc(N2C[C@@H](C(F)F)CN(c3ccc(-c4cc(F)ccc4F)cc3)C2=O)sc1S(N)(=O)=O` (single isomer, unassigned) [Compound 370] registered an EC50 of under 100 nM.
`Cc1nc(N2C[C@@H](C(F)(F)F)CN(c3ccc(-c4cc(F)ccc4F)cc3)C2=O)sc1S(N)(=O)=O` (single isomer, unassigned) [Compound 371] came in with a concentration for a half-maximal effect (EC50) of under 100 nM.
For `COc1c(F)cc(F)cc1-c1ccc(N2C[C@@H](C(F)(F)F)CN(c3nc(C)c(S(N)(=O)=O)s3)C2=O)cc1` (single isomer, unassigned) [Compound 373], the EC50 was under 100 nM.
In the case of `COc1c(F)cc(F)cc1-c1ccc(N2C[C@H](C(F)(F)F)CN(c3nc(C)c(S(N)(=O)=O)s3)C2=O)cc1` (single isomer, unassigned) [Compound 374], the EC50 was under 100 nM.
In turn, `Cc1nc(N2C[C@H](C(N)=O)CN(c3ccc(-c4cc(F)ccc4F)cc3)C2=O)sc1S(N)(=O)=O` (single isomer, unassigned) [Compound 382] came in with an EC50 of 100 to 1000 nM.
Take `Cc1nc(N2C[C@@H](C(N)=O)CN(c3ccc(-c4cc(F)ccc4F)cc3)C2=O)sc1S(N)(=O)=O` (single isomer, unassigned) [Compound 383]: the EC50 lay within 100 to 1000 nM.
In turn, `Cc1nc(N2C[C@H](F)CN(c3ccc(-c4cc(F)ccc4F)cc3)C2=O)sc1S(=O)(=O)NCCO` (single isomer, unassigned) [Compound 414] yielded an EC50 of under 100 nM.
`Cc1nc(N2C[C@@H](F)CN(c3ccc(-c4cc(F)ccc4F)cc3)C2=O)sc1S(=O)(=O)NCCO` (single isomer, unassigned) [Compound 415] yielded an EC50 of under 100 nM.
Still for that read-out and setting: then `CCC[S@@](=N)(=O)c1sc(N2CCCN(c3ccc(-c4cc(F)cc(F)c4F)cc3)C2=O)nc1C` (single isomer, unassigned) [Compound 424], with under 100 nM; and `CCC[S@](=N)(=O)c1sc(N2CCCN(c3ccc(-c4cc(F)cc(F)c4F)cc3)C2=O)nc1C` (single isomer, unassigned) [Compound 425], with under 100 nM.
Same read-out and setting: then `Cc1nc(N2CCCCN(c3ccc(-c4cc(F)ccc4F)cc3)C2=O)sc1[S@@](C)(=N)=O` (single isomer, unassigned) [Compound 426], with under 100 nM; and `Cc1nc(N2CCCCN(c3ccc(-c4cc(F)ccc4F)cc3)C2=O)sc1[S@](C)(=N)=O` (single isomer, unassigned) [Compound 427], with under 100 nM.
Consider `Cc1nc(N2CCCCN(c3ccc(-c4cccc5ncsc45)cc3)C2=O)sc1[S@@](C)(=N)=O` (single isomer, unassigned) [Compound 429], for which the half-maximal effective concentration (EC50) is under 100 nM.
In turn, `Cc1nc(N2CCCCN(c3ccc(-c4cccc5ncsc45)cc3)C2=O)sc1[S@](C)(=N)=O` (single isomer, unassigned) [Compound 430] came in with an EC50 of under 100 nM.
The compound `Cc1nc(N2CC3(COC3)CN(c3ccc(-c4cc(F)ccc4F)cc3)C2=O)sc1[S@@](C)(=N)=O` (single isomer, unassigned) [Compound 432] came in with an EC50 of under 100 nM.
`Cc1nc(N2CC3(COC3)CN(c3ccc(-c4cc(F)ccc4F)cc3)C2=O)sc1[S@](C)(=N)=O` (single isomer, unassigned) [Compound 433] yielded an EC50 of under 100 nM.
`CSc1ccccc1-c1ccc(N2CCCN(c3nc(C)c(S(N)(=O)=O)s3)C2=O)cc1` [Compound 11] displayed an EC50 of under 100 nM.

Still in this assay, the particulars now being: Vero cells, 160 TCID50 HSV-2 G strain, 5 days, cell viability.
Compound `Cc1nc(N2C[C@@H](C#N)CN(c3ccc(-c4cc(F)ccc4F)cc3)C2=O)sc1S(N)(=O)=O` (single isomer, unassigned) [Compound 377] came in with an EC50 of under 100 nM.
